Measured values reported in patent US20090197955A1, “METHODS OF IMPROVING DHA DEPOSITION AND RELATED FUNCTION AND/OR DEVELOPMENT” (Monsanto Company, priority 2008, published 2009).

Experiment: Fatty acid composition of pig tissues (ham, loin, belly, skin) after feeding SDA ethyl ester diets, 35 day study
Type: in vivo, pigs
Method: A 35 day study was conducted to determine whether pigs fed a diet containing SDA could enhance tissues with improved fatty acid profiles including increased levels of SDA, EPA, and DHA.
Four test diets (Treatment 2, 3, 4, and 5) with SDA ethyl ester substituted for corn oil to provide 0.2, 0.4, 0.6 and 0.8% (w/w SDA active ingredient, as-is basis) were fed ad libitum to one pen of four pigs throughout the 35-day test period Table 4). All diets were fed in meal form. Treatment 6 was fed the same diet as Treatment 5, but for a duration of only 21 days.
All pigs were individually weighed at initiation of the acclimation and test period, and immediately prior to slaughter. Feed consumption per pen was recorded. Upon completion of the feeding period, pigs were slaughtered for tissue collection and carcass evaluation. Pigs were slaughtered using standard industry practices (electrical stunning, exsanguinations, scalding, dehairing and evisceration). Live weights prior to slaughter and hot carcass weights were recorded. The left side of each carcass was fabricated and samples were obtained from the loin (longissimus muscle), ham (semimembranosus muscle) and belly (a section from the center of the belly) for sensory evaluation, fatty acid, and proximate analysis. Prior to removing the sample for sensory and fatty and proximate analysis from the belly the firmness of the belly was evaluated using a flop test. At 24 hr postmortem fat thickness (10th rib), loin eye area (10th rib), visual color, firmness and marbling, Minolta color (L*a*b*), pH, and drip loss were measured.
In order to evaluate the fatty acid composition of pig tissues (loin, ham, skin, and belly), samples were stored at −80° C. until evaluation. After thawing, ˜22 g of fresh pig tissue was chopped into small pieces and thoroughly mixed before 10 g was sub sampled and lyophilized. Lyophilized samples were ground in 30 ml Sarstedt tubes with two ball bearings using a Mega Grinder. Ground samples (loin and ham: 50 mg; skin: 100 mg; belly: 150 mg; diet: 500 mg) were directly methylated with sulfuric acid in methanol (loin and ham: 1 mL; skin: 3 mL; belly: 10 mL; diet: 1.5 mL) sealed in the presence of butylated hydroxytoluene (50 mg BHT in 100 ml reagent) in reflux conditions of 90° C. Resultant fatty acid methyl esters (FAME's) were separated by capillary gas chromatography (GC) and detected by flame ionization detector (FID). The column used was a Supelco Omegawax 250 capillary column with dimensions of 30 m×0.25 mm×0.25 μm film thickness. The run time was 32 minutes. Peaks were identified based on their relative retention time compared to a FAME reference mixture. Quantification was achieved by using an internal standard (c15:0 triacylglyceride (TAG) for pig tissue samples and c17:0 TAG for diet samples). Results are reported as FA g/100 g fat with theoretical response correction.
For Table 6 below, each value represents g/100 g total fatty acids a mean of 4 samples (1 sample from each of 4 pigs) per treatment.

CC/C=C\C/C=C\C/C=C\C/C=C\CCCCC(=O)O [SDA, stearidonic acid]
18:4 n-3, ham (SDA 0.6%, 35 Day): 3.56c mg FA/100 g of fresh tissue | 20:1 n-9, ham (SDA 0.6%, 35 Day): 13.3 mg FA/100 g of fresh tissue | 20:2 n-6, ham (SDA 0.6%, 35 Day): 6.1b mg FA/100 g of fresh tissue | 20:3 n-3, ham (SDA 0.6%, 35 Day): 0.87 mg FA/100 g of fresh tissue | 20:4 n-3, ham (SDA 0.6%, 35 Day): 5.85c mg FA/100 g of fresh tissue | 20:4 n-6, ham (SDA 0.6%, 35 Day): 55.3 mg FA/100 g of fresh tissue | 20:5 n-3, ham (SDA 0.6%, 35 Day): 11.32bc mg FA/100 g of fresh tissue | 22:1 n-11, ham (SDA 0.6%, 35 Day): 0.58a mg FA/100 g of fresh tissue | 22:5 n-3, ham (SDA 0.6%, 35 Day): 14.4bc mg FA/100 g of fresh tissue | 22:6 n-3, ham (SDA 0.6%, 35 Day): 2.14 mg FA/100 g of fresh tissue | Lipid content, ham (SDA 0.6%, 35 Day): 2.24% | Total PUFA, ham (SDA 0.6%, 35 Day): 337.7 mg FA/100 g of fresh tissue | Total monoenes, ham (SDA 0.6%, 35 Day): 1039 mg FA/100 g of fresh tissue | Total n-3, ham (SDA 0.6%, 35 Day): 43.1b mg FA/100 g of fresh tissue | Total n-6, ham (SDA 0.6%, 35 Day): 294.5 mg FA/100 g of fresh tissue | Total saturates, ham (SDA 0.6%, 35 Day): 765.2 mg FA/100 g of fresh tissue | n-3/n-6, ham (SDA 0.6%, 35 Day): 0.147 | 12:0, ham (SDA 0.8%, 21 Day): 2.2 mg FA/100 g of fresh tissue | 14:0, ham (SDA 0.8%, 21 Day): 36.8 mg FA/100 g of fresh tissue | 16:0, ham (SDA 0.8%, 21 Day): 701.1 mg FA/100 g of fresh tissue | 16:1 n-7, ham (SDA 0.8%, 21 Day): 108.3 mg FA/100 g of fresh tissue | 18:0, ham (SDA 0.8%, 21 Day): 358.1 mg FA/100 g of fresh tissue | 18:1 n-7, ham (SDA 0.8%, 21 Day): 138.1 mg FA/100 g of fresh tissue | 18:1 n-9, ham (SDA 0.8%, 21 Day): 1266.2 mg FA/100 g of fresh tissue | 18:2 n-6, ham (SDA 0.8%, 21 Day): 290.7 mg FA/100 g of fresh tissue | 18:3 n-3, ham (SDA 0.8%, 21 Day): 8.66 mg FA/100 g of fresh tissue | 18:4 n-3, ham (SDA 0.8%, 21 Day): 3.67c mg FA/100 g of fresh tissue | 20:1 n-9, ham (SDA 0.8%, 21 Day): 21.8 mg FA/100 g of fresh tissue | 20:2 n-6, ham (SDA 0.8%, 21 Day): 11.3a mg FA/100 g of fresh tissue | 20:3 n-3, ham (SDA 0.8%, 21 Day): 1.33 mg FA/100 g of fresh tissue | 20:4 n-3, ham (SDA 0.8%, 21 Day): 7.23c mg FA/100 g of fresh tissue | 20:4 n-6, ham (SDA 0.8%, 21 Day): 63.4 mg FA/100 g of fresh tissue | 20:5 n-3, ham (SDA 0.8%, 21 Day): 9.68b mg FA/100 g of fresh tissue | 22:1 n-11, ham (SDA 0.8%, 21 Day): 0.95ab mg FA/100 g of fresh tissue | 22:5 n-3, ham (SDA 0.8%, 21 Day): 13.2bc mg FA/100 g of fresh tissue | 22:6 n-3, ham (SDA 0.8%, 21 Day): 1.85 mg FA/100 g of fresh tissue | Lipid content, ham (SDA 0.8%, 21 Day): 3.23% | Total PUFA, ham (SDA 0.8%, 21 Day): 433.7 mg FA/100 g of fresh tissue | Total monoenes, ham (SDA 0.8%, 21 Day): 1546 mg FA/100 g of fresh tissue | Total n-3, ham (SDA 0.8%, 21 Day): 45.6b mg FA/100 g of fresh tissue | Total n-6, ham (SDA 0.8%, 21 Day): 388.1 mg FA/100 g of fresh tissue | Total saturates, ham (SDA 0.8%, 21 Day): 1104.4 mg FA/100 g of fresh tissue | n-3/n-6, ham (SDA 0.8%, 21 Day): 0.121c | 12:0, ham (SDA 0.8%, 35 Day): 1.04 mg FA/100 g of fresh tissue | 14:0, ham (SDA 0.8%, 35 Day): 18.3 mg FA/100 g of fresh tissue | 16:0, ham (SDA 0.8%, 35 Day): 386.7 mg FA/100 g of fresh tissue | 16:1 n-7, ham (SDA 0.8%, 35 Day): 52.8 mg FA/100 g of fresh tissue | 18:0, ham (SDA 0.8%, 35 Day): 206.6 mg FA/100 g of fresh tissue | 18:1 n-7, ham (SDA 0.8%, 35 Day): 81.5 mg FA/100 g of fresh tissue | 18:1 n-9, ham (SDA 0.8%, 35 Day): 685.9 mg FA/100 g of fresh tissue | 18:2 n-6, ham (SDA 0.8%, 35 Day): 208.6 mg FA/100 g of fresh tissue | 18:3 n-3, ham (SDA 0.8%, 35 Day): 4.70 mg FA/100 g of fresh tissue | 18:4 n-3, ham (SDA 0.8%, 35 Day): 4.09c mg FA/100 g of fresh tissue | 20:1 n-9, ham (SDA 0.8%, 35 Day): 9.9 mg FA/100 g of fresh tissue | 20:2 n-6, ham (SDA 0.8%, 35 Day): 5.1b mg FA/100 g of fresh tissue | 20:3 n-3, ham (SDA 0.8%, 35 Day): 0.62 mg FA/100 g of fresh tissue | 20:4 n-3, ham (SDA 0.8%, 35 Day): 5.36bc mg FA/100 g of fresh tissue | 20:4 n-6, ham (SDA 0.8%, 35 Day): 54.2 mg FA/100 g of fresh tissue | 20:5 n-3, ham (SDA 0.8%, 35 Day): 14.69c mg FA/100 g of fresh tissue | 22:1 n-11, ham (SDA 0.8%, 35 Day): 0.57a mg FA/100 g of fresh tissue | 22:5 n-3, ham (SDA 0.8%, 35 Day): 14.2bc mg FA/100 g of fresh tissue | 22:6 n-3, ham (SDA 0.8%, 35 Day): 2.35 mg FA/100 g of fresh tissue | Lipid content, ham (SDA 0.8%, 35 Day): 1.88% | Total PUFA, ham (SDA 0.8%, 35 Day): 330.6 mg FA/100 g of fresh tissue | Total monoenes, ham (SDA 0.8%, 35 Day): 846 mg FA/100 g of fresh tissue | Total n-3, ham (SDA 0.8%, 35 Day): 46.0b mg FA/100 g of fresh tissue | Total n-6, ham (SDA 0.8%, 35 Day): 284.6 mg FA/100 g of fresh tissue | Total saturates, ham (SDA 0.8%, 35 Day): 616.6 mg FA/100 g of fresh tissue | n-3/n-6, ham (SDA 0.8%, 35 Day): 0.162 | Omega 3 fatty acid enrichment in belly, loin, ham and skin tissues as compared to the control (SDA fed for the last 35 days prior to slaughter): significant increase | More DHA deposition with 35 days than with 21 days of SDA consumption (Treatment 5 (35 day) vs Treatment six (21 day), 0.8% SDA, ham): about 27%
